# Laboratory results published in paper PMC6769468, “Endogenous Neuropeptide Nocistatin Is a Direct Agonist of Acid-Sensing Ion Channels (ASIC1, ASIC2 and ASIC3)” (Biomolecules, 2019).
# Ends that are not written are not given here.
# What was measured:
# uninjected oocytes = test: Application to uninjected oocytes (negative control); type: cell-based, Xenopus laevis; conditions: 1 mM rNS
# Description: Oocytes expressed rASIC1a, rASIC1b, rASIC2a, and rASIC3 homomeric channels were prepared as described. Injected oocytes were kept for two–three days at 19 °C and then for up to seven days at 15 °C in ND-96 medium supplemented with gentamycin (50 μg·mL^−1) and containing (in mM): 96 NaCl, 2 KCl, 1.8 CaCl2, 1 MgCl2, and 10 HEPES titrated to pH 7.4 with NaOH. Electrophysiological recordings were performed using the GeneClamp500 amplifier (Axon Instruments, Inverurie, UK) at a holding potential of -50 mV. The data were filtered at 20 Hz and digitized at 100 Hz using the L780 AD converter (L-Card, Moscow, Russia). Microelectrodes were filled with 3 M KCl. The external bath solution was ND-96 with pH adjusted to 7.4/7.8 (10 mM HEPES) /8.5 (10 mM Tris). Nocistatin containing solutions were freshly prepared and buffered each experimental day in ND-96 bath solution (pH 7.4/7.8/8.5). Proton-activated currents through ASIC channels were elicited by application of ND-96, in which 10 mM of HEPES was substituted with 10 mM MES at pH 5.5/ 10 mM acetic acid at pH 4.5. The whole-cell recording was performed if a response to the control pH stimulus was stable in at least two replicates. Nocistatin-activated currents were elicited by application of nocistatin containing solutions with various concentrations of the peptide. […]
# rat ASIC1b = target: T1, rat ASIC1b (Rattus norvegicus, UniProt P55926); test: Whole-cell current activation, rat ASIC1b in X. laevis oocytes; type: cell-based
# T1 construct: expressed in transfected cells; host or cells: Xenopus laevis oocytes (injected)
# T1 sequence (P55926 1-559 isoform P55926-3): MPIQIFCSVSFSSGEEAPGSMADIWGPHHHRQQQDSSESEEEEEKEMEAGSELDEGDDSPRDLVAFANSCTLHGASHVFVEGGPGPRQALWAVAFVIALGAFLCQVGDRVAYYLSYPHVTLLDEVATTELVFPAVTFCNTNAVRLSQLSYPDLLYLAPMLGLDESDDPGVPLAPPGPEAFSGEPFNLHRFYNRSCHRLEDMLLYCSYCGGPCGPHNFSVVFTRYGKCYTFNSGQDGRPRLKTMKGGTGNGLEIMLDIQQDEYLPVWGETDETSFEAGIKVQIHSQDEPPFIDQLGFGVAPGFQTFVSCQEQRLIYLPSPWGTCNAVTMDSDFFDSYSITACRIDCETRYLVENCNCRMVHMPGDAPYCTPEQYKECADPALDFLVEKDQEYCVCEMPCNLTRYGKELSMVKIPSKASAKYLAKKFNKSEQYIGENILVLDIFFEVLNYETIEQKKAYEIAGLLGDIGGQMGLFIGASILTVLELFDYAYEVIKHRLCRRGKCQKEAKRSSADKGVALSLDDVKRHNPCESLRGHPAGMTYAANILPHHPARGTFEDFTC
# Description: (§1) Oocytes expressed rASIC1a, rASIC1b, rASIC2a, and rASIC3 homomeric channels were prepared as described. Injected oocytes were kept for two–three days at 19 °C and then for up to seven days at 15 °C in ND-96 medium supplemented with gentamycin (50 μg·mL^−1) and containing (in mM): 96 NaCl, 2 KCl, 1.8 CaCl2, 1 MgCl2, and 10 HEPES titrated to pH 7.4 with NaOH. Electrophysiological recordings were performed using the GeneClamp500 amplifier (Axon Instruments, Inverurie, UK) at a holding potential of -50 mV. The data were filtered at 20 Hz and digitized at 100 Hz using the L780 AD converter (L-Card, Moscow, Russia). Microelectrodes were filled with 3 M KCl. The external bath solution was ND-96 with pH adjusted to 7.4/7.8 (10 mM HEPES) /8.5 (10 mM Tris). Nocistatin containing solutions were freshly prepared and buffered each experimental day in ND-96 bath solution (pH 7.4/7.8/8.5). Proton-activated currents through ASIC channels were elicited by application of ND-96, in which 10 mM of HEPES was substituted with 10 mM MES at pH 5.5/ 10 mM acetic acid at pH 4.5. The whole-cell recording was performed if a response to the control pH stimulus was stable in at least two replicates. Nocistatin-activated currents were elicited by application of nocistatin containing solutions with various concentrations of the peptide.
# (§2) Extracellular solutions were applied using a computer-controlled valve system with a flow rate of 1 mL/min. The oocyte chamber volume was 80 µL. The validity of the application system for studying ASIC channels expressed in oocytes was confirmed in experiments by application of a Cl-free solution (containing (in mM): 130 NMDG, 1 MgGluc2, 2 KGluc, 5 HEPES) (pH 7.4). Fast application of proton/peptide-activating solution was performed at a flow rate of 1 mL/sec (the change of the bath solution occurred within 100 ms), followed by PC controlled flow stopping (from 5 to 15 s).
# (d) The time course of curves’ decay was fitted using a mono-exponential equation: F4(x) = A1*e^(-x/τdes) + A0, where F4(x) is the current amplitude at the time point x, A1 is the maximal current amplitude, A0 is its steady-state value and τdes is the […].
# All data are presented as mean ± SEM. The significance of normalized data differences was determined with a non-parametric Kruskal-Wallis ANOVA test with the significance level * p < 0.05 and ** p < 0.01; ns, non-significant.
# homomeric ASICs = test: Whole-cell current, homomeric ASICs in oocytes (all isoforms together); type: cell-based, rat
# Description: as §1, §2
sequence,measurement,setting,value
MPRVRSVVQARDAEPEADAEPVADEADEVEQKQLQ [rNS],Effect on uninjected oocytes,uninjected oocytes,did not produce any effects on the uninjected oocytes
same,"Acurrent, nocistatin versus protons",rat ASIC1b; 1 mM rNS vs pH drop 7.4–5.5,did not differ between protons and nocistatin
same,"Desensitization time, difference between stimuli",rat ASIC1b; 1 mM rNS vs pH drop 7.4–5.5,No differences were observed in desensitization time
same,"tmax, nocistatin versus protons",rat ASIC1b; 1 mM rNS vs pH drop 7.4–5.5,no differences
same,τdes (desensitization time constant),"rat ASIC1b; 1 mM rNS, conditioning pH 7.4, mean ± S.E. from 4–7 measurements",0.5 ± 0.06 s
same,Response to a pH drop after washing out the peptide,homomeric ASICs; after washout,completely restored after washing out the peptide
same,Response to rapid acidification after activation by the peptide,homomeric ASICs; pH drop after 1 mM rNS,did not respond further to rapid acidification after activation by the peptide
same,Effect of application at resting pH 7.4,"homomeric ASICs; resting pH 7.4, 1 mM rNS",causes rapidly activating inward currents in homomeric ASICs
